Laboratory results: US20240285679A1, “COMPOSITIONS AND METHODS FOR VISION IMPROVEMENT” (Azura Ophthalmics Ltd., priority 2021, published 2024)

Tested on: Patients with vision loss
Assay: Clinical evaluation of vision improvement (OSDI vision assessment)
Assay type: in vivo
Settings: for course of OSDI vision improvement over the follow-up: follow-up at two weeks, one month, six weeks and 3 months; for vision, change from baseline as assessed by the OSDI vision assessment: twice a week on the lower eyelid of both eyes, FIGS. 2A-2C
Procedure: Patients with vision loss were treated with control (N=26) or a drug formulation comprising 0.1% selenium disulfide (n=9), 0.5% selenium disulfide (n=26), or 1% selenium disulfide (n=34). Treatment consisted of twice a week application of the drug product on the lower eyelid of both eyes. Patients were followed up and their vision was assessed with an Ocular Surface Disease Index (OSDI) vision assessment after two weeks, one month, six weeks, and 3 months.

Substance: selenium disulfide
- course of OSDI vision improvement over the follow-up (0.5% selenium disulfide): continued improvement from 2 weeks to three months
- course of OSDI vision improvement over the follow-up (1% selenium disulfide): continued improvement from 2 weeks to three months
- vision, change from baseline as assessed by the OSDI vision assessment (drug formulation comprising 0.5% selenium disulfide): improvement in vision
- vision, change from baseline as assessed by the OSDI vision assessment (drug formulation comprising 1% selenium disulfide): improvement in vision
